Laboratory results as given in patent US4511509A, “3-Alkylidine azetidine compound and their production” (Kowa Co. Ltd., priority 1982, dated 1985).
Converted amounts (≈) assume the structure as drawn.

Key:
Experiment in all cases: antibacterial activity, MIC (Table)
Format in all cases: cell-based
Proteus inconstans 93 = details: Providencia alcalifaciens
[1] = system: Streptococcus aureus Smith
Salmonella typhi H - 901 = details: Salmonella enterica
Proteus inconstans 113 = details: Providencia alcalifaciens
[2] = system: Klebsiella pneumoniae PCO 602; details: PCO602
[3] = system: Escherichia coli RECl (PC ase I)
[4] = system: Escherichia coli 59 (PC ase II)
[5] = system: Pseudomonas putida IID 5121; details: IID5121
Serratia marcescens NHL = system: Serratia marcescens NHL
[6] = system: Bacillus subtilis ATCC 6633; details: ATCC6633
[7] = system: Streptococcus aureus 209p JC-1
[8] = system: Escherichia coli NIHJ JC-2; details: NIHJJC2
Proteus vulgaris IID874 = system: Proteus vulgaris IID874
[9] = system: Escherichia coli 68 (PC ase IV)
[10] = system: Pseudomonas aeruginosa NCTC 10490; details: NCTC10490

## C/C(CO)=C1\C(=O)N2C(C(=O)O)=C(Sc3ncccn3)C[C@H]12 [(5R)6(E)-(1-methyl-2-hydroxyethylidene)-3-(2-pyrimidinylthio)-1-azabicyclo[3.2.0]hept-2-en-7-one-2-carboxylic acid]
Proteus inconstans 93
  MIC: 0.2 µg/mL (≈ 0.626 µM)
[1]
  MIC: 0.2 µg/mL (≈ 0.626 µM)
Salmonella typhi H - 901
  MIC: 0.2 µg/mL (≈ 0.626 µM)
Proteus inconstans 113
  MIC: 0.78 µg/mL (≈ 2.44 µM)
[2]
  MIC: 0.39 µg/mL (≈ 1.22 µM)
[3]
  MIC: 0.39 µg/mL (≈ 1.22 µM)
[4]
  MIC: 0.2 µg/mL (≈ 0.626 µM)
[5]
  MIC: 100 µg/mL (≈ 313 µM)
Serratia marcescens NHL
  MIC: 0.78 µg/mL (≈ 2.44 µM)
[6]
  MIC: 0.78 µg/mL (≈ 2.44 µM)
[7]
  MIC: 0.05 µg/mL (≈ 0.157 µM)
[8]
  MIC: 0.39 µg/mL (≈ 1.22 µM)
Proteus vulgaris IID874
  MIC: 0.05 µg/mL (≈ 0.157 µM)
[9]
  MIC: 0.2 µg/mL (≈ 0.626 µM)
[10]
  MIC: 1.56 µg/mL (≈ 4.89 µM)
